Assay results from patent US20160279110A1, “COMPOSITIONS AND METHODS FOR TREATING CANCER” (UNIVERSITY OF ROCHESTER, priority 2015, published 2016).

What was measured:
UPF1 = assay: Western blot of UPF1 CP generation in Daudi B lymphoblasts; assay type: cell-based, human; conditions: 40 ng/mL TNF-α or 2 μg/mL doxorubicin
Procedure: FIG. 10b is essentially as in a, but using lysates of HEK293T cells exposed to 1 μM staurosporine. FIG. 10c is essentially as in a, but using lysates of human Daudi B lymphoblasts exposed to 40 ng/mL TNF-α or 2 μg/mL doxorubicin. FIG. 10d is essentially as in a, but using lysates of human Jurkat T cells exposed to 1 μM staurosporine. FIG. 10e is essentially as in a, but using lysates of canine MDCK cells exposed to 2 μM staurosporine. FIG. 10f is essentially as in a, but using lysates of bovine MDBK cells exposed to 2 μM staurosporine. FIG. 10g is essentially as in a, but using lysates of Chinese Hamster Ovary (CHO) cells exposed to 2 μM staurosporine. FIG. 10h is essentially as in a, but using lysates of African green monkey COS-7 cells exposed to 2 μM staurosporine or 2 μg/mL doxorubicin. At least two apoptotic inducers were used for each cell line, and at least two cell lines were tested with each apoptotic inducer.
Cells were lysed, and protein was isolated using hypotonic buffer that consists of 10 mM Tris-C1, pH 7.4, 10 mM NaCl, 2 mM EDTA, 0.5% Triton X-100, 2 mM benzamidine, 1 mM PMSF, NEM (50 μg/mL), 1× phosphatase inhibitor cocktail (Roche), and 1× protease inhibitor cocktail (Roche; Basel, Switzerland). […] Immunoreactivity was assessed using SuperSignal West Pico or Femto (Pierce Biotechnology; Waltham, Mass.). […]

NMD = assay: β-Gl Norm/Ter NMD reporter in MCF7 cells during doxorubicin treatment; assay type: cell-based, human; conditions: MCF7, 5 μM doxorubicin, by 5 h (from ~65% before)
Procedure: In FIG. 9a, MCF7 cells were treated with […] doxorubicin for the hours (h) indicated. mRNA-to-pre-mRNA ratios for the specified transcripts were measured using RT-qPCR and normalized to the ratio at 0 h, which is defined as 100%. The level of each pre-mRNA was also normalized to the level of GAPDH mRNA, and the normalized level at 0 h is defined as 100%. There are separate scales for the graphs of mRNA/pre-mRNA ratios (left) and the graphs of pre-mRNA/GAPDH mRNA ratios (right). Separately, MCF7 cells were transfected with plasmids encoding reporter β-Gl Norm mRNA or β-Gl Ter mRNA together with a plasmid encoding the reference MUP mRNA and subsequently exposed to doxorubicin (5 μM) for the times indicated. Reporter transcript levels were normalized to the level of MUP mRNA, and the normalized level of β-Gl Ter mRNA was presented as a percentage of the normalized level of β-Gl Norm mRNA, which is defined as 100% at 0 h. Error bars=S.E.M., asterisk=p<0.05 relative to the 0 h time point using the Student's t-test. #=pre-mRNA levels below qPCR detection threshold. n>3 independent biological replicates. […] HeLa and MCF7 cells were transfected with either control (Ctrl) siRNA or UPF1 siRNA, the latter to deplete endogenous UPF1 protein to less than 5% of the normal level (top western blots). mRNA/pre-mRNA ratios were then assessed using RT-qPCR as in FIG. 1a (bottom). […]

## COc1cccc2c1C(=O)c1c(O)c3c(c(O)c1C2=O)C[C@@](O)(C(=O)CO)C[C@@H]3O[C@H]1C[C@H](N)[C@H](O)[C@H](C)O1 [doxorubicin, Doxorubicin]
UPF1
  UPF1 CP generation: led to generation of the UPF1 CP prior to maximal PARP cleavage
NMD
  level of β-Gl Ter mRNA as % of the level of β-Gl Norm mRNA: ~85%
